US20180104198A1, “Pharmaceutical Composition, Methods for Treating and Uses Thereof” (Boehringer Ingelheim International GmbH, priority 2016, published 2018)

Tests used:
[1] = molecular target: T1, human diamine oxidase (Homo sapiens, UniProt P19801); experiment: inhibition of human diamine oxidase; details: qualitative statement
T1 sequence (P19801 20-751): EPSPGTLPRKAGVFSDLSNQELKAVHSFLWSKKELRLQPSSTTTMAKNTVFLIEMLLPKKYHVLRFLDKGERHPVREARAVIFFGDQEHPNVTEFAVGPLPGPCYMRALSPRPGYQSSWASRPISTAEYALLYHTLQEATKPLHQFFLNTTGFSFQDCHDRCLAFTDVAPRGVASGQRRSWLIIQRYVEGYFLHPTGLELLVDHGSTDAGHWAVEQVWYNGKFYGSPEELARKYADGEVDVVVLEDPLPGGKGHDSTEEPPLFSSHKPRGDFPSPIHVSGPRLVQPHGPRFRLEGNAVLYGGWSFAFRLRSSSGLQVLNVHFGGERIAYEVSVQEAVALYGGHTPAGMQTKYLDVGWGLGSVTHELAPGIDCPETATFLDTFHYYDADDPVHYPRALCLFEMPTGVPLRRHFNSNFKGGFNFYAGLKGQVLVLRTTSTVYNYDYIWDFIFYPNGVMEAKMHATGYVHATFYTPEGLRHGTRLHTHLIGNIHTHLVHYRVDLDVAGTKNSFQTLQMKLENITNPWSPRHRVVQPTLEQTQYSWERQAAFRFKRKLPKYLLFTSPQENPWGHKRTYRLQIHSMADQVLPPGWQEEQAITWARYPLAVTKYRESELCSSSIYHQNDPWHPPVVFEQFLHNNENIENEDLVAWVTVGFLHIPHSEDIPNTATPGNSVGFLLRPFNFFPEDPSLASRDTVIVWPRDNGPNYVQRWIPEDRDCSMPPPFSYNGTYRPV

[2] = test system: patients with type 2 diabetes mellitus; details: patients with type 2 diabetes mellitus at high risk for cardiovascular events; Zinman et al. 2015; cited from earlier work
[3] = test system: SGLT2 versus SGLT1; details: Grempler et al. 2012; cited from earlier work
[4] = test system: HbA1c; details: metformin on its own, in the diabetic; cited from earlier work

## CC(C)(C)NC(=O)c1ccc(OC/C(=C/F)CN)cc1 [Compound 23, (E)-4-(2-(Aminomethyl)-3-fluoroallyloxy)-N-tert-butylbenzamide]
[1]
  inhibitory activity against human diamine oxidase: low inhibitory activity

## OC[C@H]1O[C@@H](c2ccc(Cl)c(Cc3ccc(O[C@H]4CCOC4)cc3)c2)[C@H](O)[C@@H](O)[C@@H]1O [empagliflozin]
[2]
  rates of the primary composite cardiovascular outcome and of death from any cause: significantly lower rates
[3]
  selectivity SGLT2 versus SGLT1: high selectivity

## CN(C)C(=N)N=C(N)N [metformin]
[4]
  average improvement in the HbA1c value: 1.0-1.5%
